Measured values published in US8455663B2, “Halosubstituted aryloxyalkylimidazolines for use as pesticides” (Syngenta Crop Protection LLC, priority 2007, dated 2013).
Read-outs that look alike come from different tables or passages of the source.

Columns and labels:
Format in all cases: in vivo
T. Urticae = test: Tetranychus urticae bean leaf disc test, comparison with prior art compounds A and B; details: 12.5 ppm spray on bean leaf discs; mixed ages; 8 days; egg, larval and adult mortality
Description: 4.4.2 In a further test, the efficacy of one of the compounds giving 100% control in Example 4.4.1 above was compared to the efficacy of imidazoline compounds from the prior art (compounds A and B).
Bean leaf discs on agar in 24-well microtiter plates were sprayed with test solutions at an application rate of 12.5 ppm. After drying, the leaf discs are infested with mite populations of mixed ages. 8 days later, discs are checked for egg mortality, larval mortality, and adult mortality.

Myzus persicae [1] = test: Myzus persicae (green peach aphid) sunflower leaf disc spray test; details: for pest or weed control at 200 ppm: Myzus persicae, foliar, 144 h, read-out: control of Myzus persicae
Protocol: 4.2 Myzus Persicae (Green Peach Aphid):
Sunflower leaf discs were placed on agar in a 24-well microtiter plate and sprayed with test solutions at an application rate of 200 ppm. After drying, the leaf discs were infested with an aphid population of mixed ages. After an incubation period of 6 DAT, samples were checked for mortality.

Myzus persicae [2] = test: Myzus persicae (green peach aphid) pea seedling root uptake test; details: for pest or weed control at 24 ppm: Myzus persicae, 144 h, read-out: control of Myzus persicae
Description: 4.3 Myzus Persicae (Green Peach Aphid):
Roots of pea seedlings, infested with an aphid population of mixed ages, were placed directly in the test solutions of 24 ppm. 6 days after introduction, samples were checked for mortality.

Heliothis virescens = Heliothis virescens (tobacco budworm) egg/larvae test on artificial diet; details: for pest or weed control at 200 ppm: Heliothis virescens, 96 h, read-out: control of Heliothis virescens
Protocol: 4.1 Heliothis Virescens (Tobacco Budworm):
Eggs (0-24 h old) were placed in 24-well microtiter plate on artificial diet and treated with test solutions at an application rate of 200 ppm by pipetting. After an incubation period of 4 days, samples were checked for egg mortality, larval mortality, and growth regulation.

Tetranychus urticae = Tetranychus urticae (two-spotted spider mite) bean leaf disc spray test; details: for pest or weed control at 200 ppm: Tetranychus urticae, foliar, 192 h, read-out: control of Tetranychus urticae
Description: 4.4 Tetranychus Urticae (Two-Spotted Spider Mite):
4.4.1 Bean leaf discs on agar in 24-well microtiter plates were sprayed with test solutions at an application rate of 200 ppm. After drying, the leaf discs are infested with mite populations of mixed ages. 8 days later, discs are checked for egg mortality, larval mortality, and adult mortality.

[3] = 200 ppm spray on sunflower leaf discs, mixed ages, 6 DAT, mortality
[4] = 24 ppm test solution, roots of infested pea seedlings, 6 days, mortality
[5] = 200 ppm by pipetting on eggs (0-24 h old) on artificial diet, 4 days, egg mortality, larval mortality, growth regulation
[6] = 200 ppm spray on bean leaf discs, mixed ages, 8 days, egg, larval and adult mortality

SMILES	pest or weed control at 200 ppm (Myzus persicae [1]; [3]) [%]	pest or weed control at 24 ppm (Myzus persicae [2]; [4]) [%]	pest or weed control at 200 ppm (Heliothis virescens; [5]) [%]	pest or weed control at 200 ppm (Tetranychus urticae; [6]) [%]	also measured
CCC(Oc1cccc(Cl)c1Cl)C1=NCCN1 (stereo not drawn) [A]					Control % (T. Urticae): 0%
CCC(Oc1cccc(C)c1Cl)C1=NCCN1 (stereo not drawn) [B]					Control % (T. Urticae): 50%
CCC(Oc1cccc(C(F)(F)F)c1Cl)C1=NCCN1 (stereo not drawn) [Compound 1.001, 2-[1-(2-Chloro-3-trifluormethyl-phenoxy)-propyl]-4,5-dihydro-1H-imidazole]	100	100	50	100	Control % (T. Urticae): 80%
CCC(Oc1cccc(C(F)F)c1Cl)C1=NCCN1 (stereo not drawn) [Compound 1.002, 2-[1-(2-Chloro-3-difluoromethyl-phenoxy)-propyl]-4,5-dihydro-1H-imidazole]					pest or weed control at 200 ppm (Myzus persicae [1]): 100%; pest or weed control at 24 ppm (Myzus persicae [2]): 80%; pest or weed control at 200 ppm (Heliothis virescens): 0%; pest or weed control at 200 ppm (Tetranychus urticae): 100%
CCC(Oc1cccc(C(F)F)c1Cl)C1=NCCN1C(=O)OC(C)(C)C (stereo not drawn) [Compound 1.003]	100	0	0	0	
CCC(Oc1cccc(CO)c1Cl)C1=NCCN1 (stereo not drawn) [Compound 1.005]	0	0	0	0	
CCC(Oc1cccc(CF)c1Cl)C1=NCCN1 (stereo not drawn) [Compound 1.006]	100	80	100	100	
CCC(Oc1cccc(CO)c1Cl)C1=NCCN1C(=O)OC(C)(C)C (stereo not drawn) [Compound 1.007]	0		0	0	
CCC(Oc1cccc(COC)c1Cl)C1=NCCN1 (stereo not drawn) [Compound 1.008]					control of Myzus persicae (Myzus persicae [1]; [3]): 0%; control of Heliothis virescens (Heliothis virescens; [5]): 80%; control of Tetranychus urticae (Tetranychus urticae; [6]): 0%
C#Cc1cccc(OC(CC)C2=NCCN2)c1Cl (stereo not drawn) [Compound 1.011, 2-[1-(2-Chloro-3-ethynyl-phenoxy)-propyl]-4,5-dihydro-1H-imidazole]	50		50	0	
C=Cc1cccc(OC(CC)C2=NCCN2)c1Cl (stereo not drawn) [Compound 1.012]	0		0	0	
CC(Oc1cccc(C(F)(F)F)c1Cl)C1=NCCN1 (stereo not drawn) [Compound 1.014]	100	50	80	80	
CCCC(Oc1cccc(C(F)(F)F)c1Cl)C1=NCCN1 (stereo not drawn) [Compound 1.015]					control of Myzus persicae (Myzus persicae [1]; [3]): 100%; control of Myzus persicae (Myzus persicae [2]; [4]): 50%; control of Heliothis virescens (Heliothis virescens; [5]): 100%; control of Tetranychus urticae (Tetranychus urticae; [6]): 100%
CC(C)C(Oc1cccc(C(F)(F)F)c1Cl)C1=NCCN1 (stereo not drawn) [Compound 1.016]	100	80	0	100	
C=Cc1cccc(OC(CC)C2=NCCN2C(=O)OC(C)(C)C)c1Cl (stereo not drawn) [Compound 1.017]	0		0	0	
CCC(Oc1cccc(CSC)c1Cl)C1=NCCN1 (stereo not drawn) [Compound 1.019]					control of Myzus persicae (Myzus persicae [1]; [3]): 0%; control of Heliothis virescens (Heliothis virescens; [5]): 0%; control of Tetranychus urticae (Tetranychus urticae; [6]): 0%
CCC(Oc1cccc(C(F)(F)F)c1I)C1=NCCN1.O=C(O)/C=C\C(=O)O (stereo not drawn) [Compound 1.020]					control of Myzus persicae (Myzus persicae [1]; [3]): 100%; control of Myzus persicae (Myzus persicae [2]; [4]): 80%; control of Heliothis virescens (Heliothis virescens; [5]): 0%; control of Tetranychus urticae (Tetranychus urticae; [6]): 100%

SMILES	pest or weed control at 200 ppm (Myzus persicae [1]; [3]) [%]	pest or weed control at 24 ppm (Myzus persicae [2]; [4]) [%]	pest or weed control at 200 ppm (Heliothis virescens; [5]) [%]	pest or weed control at 200 ppm (Tetranychus urticae; [6]) [%]	also measured
CCCC(Oc1cccc(Br)c1Br)C1=NCCN1 (stereo not drawn) [Compound 1.021]	100	0	100	100	
CCCC(Oc1cccc(I)c1Br)C1=NCCN1 (stereo not drawn) [Compound 1.022]	100		50	80	
CC(Oc1cccc(C(F)F)c1Cl)C1=NCCN1 (stereo not drawn) [Compound 1.023]	100	0	80	0	
CCC(Oc1cccc(C#N)c1Cl)C1=NCCN1 (stereo not drawn) [Compound 1.024]	80	50	0	100	
CCC(Oc1cccc(C#N)c1Cl)C1=NCCN1C(=O)OC(C)(C)C (stereo not drawn) [Compound 1.025]	0		0	50	
CCCCC(Oc1cccc(C(F)(F)F)c1Cl)C1=NCCN1 (stereo not drawn) [Compound 1.027]	80	0	50	100	
CCCC(Oc1cccc(C(F)F)c1Cl)C1=NCCN1 (stereo not drawn) [Compound 1.028]	100	100	80	100	
CCCCC(Oc1cccc(C(F)F)c1Cl)C1=NCCN1 (stereo not drawn) [Compound 1.029]			80		
CC(C)C(Oc1cccc(C(F)F)c1Cl)C1=NCCN1 (stereo not drawn) [Compound 1.030]	100	80	0	100	
CCCC(Oc1cccc(CF)c1Cl)C1=NCCN1 (stereo not drawn) [Compound 1.031]	100	80	0	100	
CCCCC(Oc1cccc(CF)c1Cl)C1=NCCN1 (stereo not drawn) [Compound 1.032]	100	50	0	0	
CCCC(Oc1cccc(I)c1Cl)C1=NCCN1 (stereo not drawn) [Compound 1.033]	100	0	80	80	
CCC(Oc1cccc(CCl)c1Cl)C1=NCCN1C(=O)OC(C)(C)C (stereo not drawn) [Compound 1.034]					control of Myzus persicae (Myzus persicae [1]; [3]): 0%; control of Heliothis virescens (Heliothis virescens; [5]): 100%; control of Tetranychus urticae (Tetranychus urticae; [6]): 0%
CCC(Oc1cccc(C[S+](C)[O-])c1Cl)C1=NCCN1 (stereo not drawn) [Compound 1.035]					control of Myzus persicae (Myzus persicae [1]; [3]): 0%; control of Heliothis virescens (Heliothis virescens; [5]): 0%; control of Tetranychus urticae (Tetranychus urticae; [6]): 0%
CCCC(Oc1cccc(Br)c1Cl)C1=NCCN1 (stereo not drawn) [Compound 1.036]	100	0	100	100	
CC(C)C(Oc1cccc(CF)c1Cl)C1=NCCN1 (stereo not drawn) [Compound 1.037]	100	50	80	100	
